Reference: ChEMBL document CHEMBL1146007, “Binding of sulfonyl-containing arylalkylamines at human 5-HT6 serotonin receptors” (J Med Chem, 2006)

Molecular target: 5-hydroxytryptamine receptor 6 (Homo sapiens, UniProt P50406)
Assay: Binding affinity to human 5HT6 receptor in HEK293 cells by radioligand binding assay
Assay type: cell-based

Sequence of 5-hydroxytryptamine receptor 6 (P50406 whole entry): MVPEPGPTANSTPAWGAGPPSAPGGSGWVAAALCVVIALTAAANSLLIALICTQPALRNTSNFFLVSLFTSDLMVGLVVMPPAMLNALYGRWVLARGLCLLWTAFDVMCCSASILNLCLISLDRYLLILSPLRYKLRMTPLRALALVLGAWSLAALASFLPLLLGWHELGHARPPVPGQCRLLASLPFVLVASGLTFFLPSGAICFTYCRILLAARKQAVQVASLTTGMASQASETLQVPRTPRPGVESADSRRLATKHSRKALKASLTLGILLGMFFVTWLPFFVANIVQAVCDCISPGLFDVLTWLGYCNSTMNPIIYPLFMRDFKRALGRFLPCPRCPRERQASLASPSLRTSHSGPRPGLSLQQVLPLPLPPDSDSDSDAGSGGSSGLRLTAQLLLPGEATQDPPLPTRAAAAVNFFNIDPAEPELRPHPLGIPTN

Which Ki does the source give for `NCCCc1cccc(NS(=O)(=O)c2ccccc2)c1` here?
The Ki was 230 nM.

Which Ki does the source give for `NCCc1cccc(Sc2ccccc2)c1` here?
Its Ki is 115 nM.

For `O=S(=O)(Nc1cccc(N2CCNCC2)c1)c1ccccc1`, which Ki is on record?
The Ki was 62 nM.

For `NCCc1cccc(S(=O)(=O)c2ccccc2)c1`, which Ki is on record?
Its Ki is 50 nM.

For `CNCCc1cccc(NS(=O)(=O)c2ccccc2)c1`, which Ki is on record?
The Ki was 38 nM.

For `O=S(=O)(Nc1ccc(N2CCNCC2)cc1)c1ccccc1`, which Ki is on record?
The Ki was 85 nM.

With `O=S(=O)(c1ccccc1)c1ccc(N2CCNCC2)cc1` as the compound, how does the Ki read?
The Ki was 6.9 nM.

How did the Ki turn out when `NCCc1ccc(S(=O)(=O)c2ccccc2)cc1` was run?
Its Ki is 37 nM.

For `NCCc1ccc(NS(=O)(=O)c2ccccc2)cc1`, which Ki is on record?
Its Ki is 38 nM.

For `NCc1cccc(NS(=O)(=O)c2ccccc2)c1`, which Ki is on record?
Its Ki is 290 nM.

For `Nc1cccc(NS(=O)(=O)c2ccccc2)c1`, which Ki is on record?
The Ki was 2840 nM.

For `COc1ccc(NS(=O)(=O)c2ccccc2)cc1CCN`, which Ki is on record?
The Ki was 17 nM.

With `O=S(=O)(c1ccccc1)c1cccc(N2CCNCC2)c1` as the compound, how does the Ki read?
The Ki was 1.2 nM.

`O=S(=O)(c1ccccc1)c1ccccc1N1CCNCC1` was tested. Which Ki did it give?
The Ki was 4000 nM.

`CN(C)CCc1cccc(NS(=O)(=O)c2ccccc2)c1` was tested. Which Ki did it give?
The Ki was 52 nM.

Which Ki does the source give for `NCCc1cccc(S(=O)(=O)Nc2ccccc2)c1` here?
Its Ki is 70 nM.

Which Ki does the source give for `CN(C)CCc1ccn(S(=O)(=O)c2ccccc2)c1` here?
The Ki was 15 nM.

`NCCc1cccc(NS(=O)(=O)c2ccccc2)c1` was tested. Which Ki did it give?
Its Ki is 21 nM.
